Laboratory results taken from article PMC9121578, “Celastrol mitigates inflammation in sepsis by inhibiting the PKM2-dependent Warburg effect” (Military Medical Research, 2022).
pKd: −log10 of the molar value.

Tests used:
Type in all cases: binding
[1] = target: T1, HMGB1 (high mobility group box 1) (Homo sapiens, UniProt P09429); assay: surface plasmon resonance, CM5 chip, steady-state […]
T1 construct: recombinant full length, pET-24d, E. coli BL21, Ni-NTA purified; a recombinant human HMGB1 was also bought from Abcam
T1 sequence (P09429 1-215): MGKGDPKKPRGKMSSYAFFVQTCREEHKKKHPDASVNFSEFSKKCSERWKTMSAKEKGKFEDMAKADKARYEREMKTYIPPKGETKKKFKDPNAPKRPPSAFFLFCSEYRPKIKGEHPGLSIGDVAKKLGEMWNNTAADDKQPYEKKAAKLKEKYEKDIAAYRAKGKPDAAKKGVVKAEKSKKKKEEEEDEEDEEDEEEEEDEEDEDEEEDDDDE

HMGB1 B box = target: T2, HMGB1 B box (Homo sapiens, UniProt P09429); assay: UV-visible absorption; competition with Cel-P labelling; conditions: 100 μmol/L Cel; covalent
T2 construct: B box domain (contains Cys106)
T2 sequence (P09429 95-163 limits assumed): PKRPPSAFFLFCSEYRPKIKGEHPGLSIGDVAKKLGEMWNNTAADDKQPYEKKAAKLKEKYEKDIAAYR

[2] = target: T3, LDHA (lactate dehydrogenase A) (Homo sapiens, UniProt P00338); assay: surface plasmon resonance, CM5 chip, steady-state […]
T3 construct: recombinant human LDHA obtained from Abcam

[3] = target: T4, PKM2 (pyruvate kinase M2) (Homo sapiens, UniProt P14618); assay: as above
T4 construct: gene PKM; recombinant, pET28a, E. coli BL21, Ni-NTA purified; full length implied

[4] = target: T1, HMGB1 (high mobility group box 1); assay: probe labelling, click chemistry, in-gel fluorescence; conditions: room temperature; PBS; covalent
[5] = target: T4, PKM2 (pyruvate kinase M2); assay: as above; conditions: room temperature; PBS; covalent

T4 sequence (P14618 2-531): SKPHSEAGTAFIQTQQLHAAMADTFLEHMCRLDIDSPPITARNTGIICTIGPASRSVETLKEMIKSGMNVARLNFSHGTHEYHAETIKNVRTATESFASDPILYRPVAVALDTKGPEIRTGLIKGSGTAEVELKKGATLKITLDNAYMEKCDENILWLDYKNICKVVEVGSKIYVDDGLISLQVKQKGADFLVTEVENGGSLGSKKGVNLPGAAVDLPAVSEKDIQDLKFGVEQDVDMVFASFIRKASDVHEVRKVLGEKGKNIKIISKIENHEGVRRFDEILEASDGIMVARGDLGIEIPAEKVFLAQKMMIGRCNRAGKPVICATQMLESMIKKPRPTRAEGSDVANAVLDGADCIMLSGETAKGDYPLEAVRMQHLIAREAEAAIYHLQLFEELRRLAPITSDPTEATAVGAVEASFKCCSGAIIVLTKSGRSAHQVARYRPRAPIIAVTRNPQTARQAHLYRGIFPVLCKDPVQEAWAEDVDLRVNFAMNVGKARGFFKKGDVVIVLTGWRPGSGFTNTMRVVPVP

SMILES	pKd [1]	UV-visible absorption; competition with Cel-P labelling (HMGB1 B box)	pKd [2]	pKd [3]	probe labelling, click chemistry, in-gel fluorescence [4]	probe labelling, click chemistry, in-gel fluorescence [5]
CC1=C(O)C(=O)C=C2C1=CC=C1[C@@]2(C)CC[C@@]2(C)[C@@H]3C[C@](C)(C(=O)O)CC[C@]3(C)CC[C@]12C [Cel, Celastrol]	5.35	UV–visible absorption by Cel decreased upon mixing with the B box domain	3.25	3.20	–	–
C#CCNC(=O)[C@]1(C)CC[C@]2(C)CC[C@]3(C)C4=CC=C5C(=CC(=O)C(O)=C5C)[C@]4(C)CC[C@@]3(C)[C@@H]2C1 [Cel-P, celastrol-probe]	–	–	–	–	Cel-P labeled recombinant human HMGB1 (Fig. 6c)	These proteins were labeled with Cel-P in a dose-dependent manner
